According to patent publication US20130115628A1, “METHOD FOR SELECTION OF CHEMOTHERAPEUTIC AGENTS FOR ADENOCARCINOMA CANCER” (VENTANA MEDICAL SYSTEMS, INC., priority 2011, published 2013):

Tests used:
[1] = system: pancreatic adenocarcinoma; experiment: Retrospective study of tumor hENT1 expression (IHC, SP120) and overall survival in RTOG 9704 patients given adjuvant gemcitabine or 5FU; format: in vivo, human; design: Median OS in Gem hENT1-Low Patients / Median OS in Gem hENT1-High Patients: unit not given here; settings: for median OS as hENT1 expression increases from No to Low to High: Method Five (percent negative staining), FIG. 18; for median OS as hENT1 expression increases from Negative to Weak to Moderate to Strong: Method Four (staining intensity), FIG. 30; for median OS as hENT1 expression (H-score subgroup) increases: Method One (H-score), FIG. 22; for OS across High, Mid and No hENT1 subgroups: Method Six with No hENT1 category (membranes resolvable at 10×), FIGS. 33-34; for OS of Low hENT1 subgroup compared to High hENT1 subgroup: Method Six; for median OS as hENT1 expression increases from Negative to Segmental to Diffuse: Method Three (staining pattern), FIG. 26; for OS of subgroup N, 20× or 40× compared to subgroup PP at 2×, 4× or 10×: Method Two (magnification), FIGS. 15-16; for HR (CI) for hENT1-Low vs -High in Gem Patients / HR for Gem vs 5-FU in hENT1-High Patients / HR for Gem vs 5-FU in hENT1-Low Patients: overall survival
Excerpt: Method One for determining a hENT1 endpoint is an H-score. The H-score is a continuous variable that takes into account both the percentage of cells that are positive for the antigen in question, as well as the intensity of staining with the relevant antibody (McCarty et al. (1986) Cancer Research (Supp) 46, 4244s-4248s). A scoring algorithm was used to capture the hENT1 expression results. […]
Method Four for determining a hENT1 endpoint is based on highest percentage of hENT1 membrane staining intensity. The staining intensity for a tissue core is determined using the parameters described for the H-score (0, 1+, 2+, 3+). The percentage of each parameter represented by the tumor is determined. If a score of only 0 is obtained, the endpoint is considered Negative (N). For all other samples (e.g. those that contain scores with 0, 1+, 2+, and/or 3+), the endpoint is determined by the non-0 membrane intensity represented in the highest percentage (see FIG. 1). For example, if the sample is 50% 0, 20% 1+, 30% 2+ and 0% 3+, such sample would be referred to as 2+. If 2 intensities have the same percentage then the lower of the 2 intensities is used. A staining intensity score of 0 is referred to as Negative (N), a staining intensity score of 1+ is referred to as Weak (W), a staining intensity score of 2+ is referred to as Moderate (M), and a staining intensity score of 3+ is referred to as Strong (S). If there are multiple evaluations made on a patient, the maximum result (i.e., S>M>W) from the evaluations is used. There may be circumstances where if multiple evaluations are made on a patient, the minimum result from the evaluations is used. […]

pancreatic cancer = settings: Stage III/IV disease, gemcitabine monotherapy; cited from earlier work
[2] = High = PP at 2×, 4× and/or 10× AND negative tumor tissue <=50%, FIGS. 7-8
[3] = High = at least 50% of tumor displays membrane staining at 10× ocular, FIGS. 4-5
[4] = 50% tumor staining, Low group: >50% of tumor is negative
[5] = Magnification (intensity), Low group: unequivocal membranes visible only at 20x, 40x or negative
[6] = Magnification and % tumor staining, Low group: membranes visible only at 20x, 40x or negative OR >=50% of tumor is negative
[7] = staining variable H-score, Low group: H-score <50

O=c1[nH]cc(F)c(=O)[nH]1 [5FU, 5-Fluorouracil]
median OS as hENT1 expression increases from No to Low to High [1]: do not demonstrate an improvement in OS with increasing hENT1 expression | median OS as hENT1 expression increases from Negative to Weak to Moderate to Strong [1]: do not demonstrate an improvement in OS with increasing hENT1 expression | median OS as hENT1 expression (H-score subgroup) increases [1]: do not demonstrate an improvement in OS with increasing hENT1 expression | OS across High, Mid and No hENT1 subgroups [1]: do not demonstrate improvement in OS between the High, Mid and No hENT1 subgroups | OS of Low hENT1 subgroup compared to High hENT1 subgroup [1, 2]: do not demonstrate improvement in OS between the High and Low subgroups | OS of Low hENT1 subgroup compared to High hENT1 subgroup [1, 3]: do not demonstrate improvement in OS between the High and Low subgroups | median OS as hENT1 expression increases from Negative to Segmental to Diffuse [1]: do not demonstrate an improvement in OS with increasing hENT1 expression | OS of subgroup N, 20× or 40× compared to subgroup PP at 2×, 4× or 10× [1]: do not demonstrate an improvement in OS

Nc1ccn([C@@H]2O[C@H](CO)[C@@H](O)C2(F)F)c(=O)n1 [gemcitabine]
Median OS in Gem hENT1-High Patients [1, 4]: 19.6 | Median OS in Gem hENT1-Low Patients [1, 4]: 14.2 | Median OS in Gem hENT1-High Patients [1, 5]: 21.0 | Median OS in Gem hENT1-Low Patients [1, 5]: 14.8 | Median OS in Gem hENT1-High Patients [1, 6]: 24.2 | Median OS in Gem hENT1-Low Patients [1, 6]: 14.8 | median OS as hENT1 expression increases from No to Low to High [1]: increases | OS of No hENT1 subgroup compared to Low and High hENT1 subgroups ([1]; Method Five, FIG. 19): exhibited shorter OS | OS of patients with observable hENT1 expression (Low and High combined) compared to no hENT1 expression ([1]; Method Five, FIG. 20): exhibit longer OS | median OS as hENT1 expression increases from Negative to Weak to Moderate to Strong [1]: increases | OS of negative hENT1 subgroup compared to Weak, Moderate or Strong subgroups ([1]; Method Four, FIG. 31): exhibited shorter OS | median OS as hENT1 expression (H-score subgroup) increases [1]: increases | OS of subgroup H-score<=20 compared to H-score between 20 and 80 and H-score>=80 ([1]; Method One, FIG. 23): exhibited shorter OS | OS of patients with H-score>=50 compared to H-score <50 ([1]; Method One, FIG. 24): exhibited longer OS | OS across High, Mid and No hENT1 subgroups [1]: the subgroup with No hENT1 expression exhibited the shortest OS followed by the Mid hENT1 subgroup and the High hENT1 subgroup had the longest OS | OS of Low hENT1 subgroup compared to High hENT1 subgroup [1, 2]: exhibited shorter OS | OS of Low hENT1 subgroup compared to High hENT1 subgroup [1, 3]: exhibited shorter OS | median OS as hENT1 expression increases from Negative to Segmental to Diffuse [1]: increases | OS of negative hENT1 subgroup compared to Segmental or Diffuse subgroups ([1]; Method Three, FIG. 27): exhibited shorter OS | OS of patients with detectable hENT1 expression (S or D) compared to no hENT1 expression ([1]; Method Three, FIG. 28): exhibit longer OS | OS of subgroup N, 20× or 40× compared to subgroup PP at 2×, 4× or 10× [1]: exhibited shorter OS | median overall survival of hENT1-high patients compared to hENT1-low patients ([1]; for each of the hENT1 cut-offs of Table 2): longer | HR (CI) for hENT1-Low vs -High in Gem Patients [1, 4]: 0.61 | HR for Gem vs 5-FU in hENT1-High Patients [1, 4]: 0.84 | HR for Gem vs 5-FU in hENT1-Low Patients [1, 4]: 1.37 | HR (CI) for hENT1-Low vs -High in Gem Patients [1, 5]: 0.67 | HR for Gem vs 5-FU in hENT1-High Patients [1, 5]: 0.87 | HR (CI) for hENT1-Low vs -High in Gem Patients [1, 6]: 0.58 | HR for Gem vs 5-FU in hENT1-High Patients [1, 6]: 0.77 | HR (CI) for hENT1-Low vs -High in Gem Patients [1, 7]: 0.63 | HR for Gem vs 5-FU in hENT1-High Patients [1, 7]: 0.86 | HR for Gem vs 5-FU in hENT1-Low Patients [1, 7]: 1.35 | Median OS in Gem hENT1-High Patients [1, 7]: 19.6 | Median OS in Gem hENT1-Low Patients [1, 7]: 14.2 | median OS (pancreatic cancer): 5-7 months
